Laboratory results as given in ChEMBL document CHEMBL5465560, “Selectivity Literature for EUbOPEN Chemogenomic Library” (2024).
Blank lines part the entries; values can stand above or below the molecule they belong to.

Tests used:
[1] = target: Receptor tyrosine-protein kinase erbB-2 (Homo sapiens, UniProt P04626); conditions: at 10 µM
[2] = target: SRSF protein kinase 3 (Homo sapiens) (UniProt Q9UPE1); assay: Selectivity interaction (Kinase panel (Invitrogen)) EUB0000639a SRPK3; conditions: at 200 nM
[3] = test system: Leucine-rich repeat serine/threonine-protein kinase 2 (Homo sapiens), Q5S007 [G2019S]; assay: (§1) Selectivity interaction (KinomeScan (DiscoverX)) EUB0000595a LRRK2; conditions: at 10 µM
[4] = target: Leucine-rich repeat serine/threonine-protein kinase 2 (Homo sapiens, UniProt Q5S007); assay: as §1; conditions: at 10 µM
[5] = target: T1, Testis-specific serine/threonine-protein kinase 3 (Homo sapiens) (UniProt Q96PN8); assay: Selectivity interaction (KinomeScan (DiscoverX)) EUB0001049a TSSK3; conditions: at 1 µM
T1 sequence (whole entry): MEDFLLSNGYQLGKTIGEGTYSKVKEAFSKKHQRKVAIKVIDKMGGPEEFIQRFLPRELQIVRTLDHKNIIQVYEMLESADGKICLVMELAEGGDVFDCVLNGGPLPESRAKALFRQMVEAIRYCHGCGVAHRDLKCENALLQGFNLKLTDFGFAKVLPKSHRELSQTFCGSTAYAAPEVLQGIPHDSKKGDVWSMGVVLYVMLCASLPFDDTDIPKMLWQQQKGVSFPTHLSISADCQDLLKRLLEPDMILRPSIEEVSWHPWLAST

[6] = target: T2, Dual specificity tyrosine-phosphorylation-regulated kinase 2 (Homo sapiens) (UniProt Q92630); assay: Selectivity interaction (KinomeScan (DiscoverX)) EUB0000655a DYRK2; conditions: at 10 µM
T2 sequence (whole entry): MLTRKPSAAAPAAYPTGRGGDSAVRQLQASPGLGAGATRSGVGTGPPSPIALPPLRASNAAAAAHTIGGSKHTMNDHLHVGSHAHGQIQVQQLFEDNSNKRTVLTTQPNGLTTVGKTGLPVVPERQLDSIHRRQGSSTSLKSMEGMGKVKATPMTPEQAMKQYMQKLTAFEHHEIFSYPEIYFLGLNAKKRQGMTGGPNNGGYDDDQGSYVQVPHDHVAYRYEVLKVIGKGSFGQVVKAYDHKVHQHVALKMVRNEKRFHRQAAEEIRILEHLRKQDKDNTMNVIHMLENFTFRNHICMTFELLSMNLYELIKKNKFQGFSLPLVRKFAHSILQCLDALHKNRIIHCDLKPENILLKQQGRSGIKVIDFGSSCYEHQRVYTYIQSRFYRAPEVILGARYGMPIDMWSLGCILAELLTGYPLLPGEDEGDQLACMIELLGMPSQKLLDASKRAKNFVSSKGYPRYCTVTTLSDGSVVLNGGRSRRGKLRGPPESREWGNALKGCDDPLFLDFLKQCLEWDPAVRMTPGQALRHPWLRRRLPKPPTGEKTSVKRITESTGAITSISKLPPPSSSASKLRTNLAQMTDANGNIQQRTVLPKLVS

[7] = target: T3, Serine/threonine-protein kinase D3 (Homo sapiens) (UniProt O94806); assay: Selectivity interaction (KinomeScan (DiscoverX)) EUB0000655a PRKD3; conditions: at 10 µM
T3 sequence (whole entry): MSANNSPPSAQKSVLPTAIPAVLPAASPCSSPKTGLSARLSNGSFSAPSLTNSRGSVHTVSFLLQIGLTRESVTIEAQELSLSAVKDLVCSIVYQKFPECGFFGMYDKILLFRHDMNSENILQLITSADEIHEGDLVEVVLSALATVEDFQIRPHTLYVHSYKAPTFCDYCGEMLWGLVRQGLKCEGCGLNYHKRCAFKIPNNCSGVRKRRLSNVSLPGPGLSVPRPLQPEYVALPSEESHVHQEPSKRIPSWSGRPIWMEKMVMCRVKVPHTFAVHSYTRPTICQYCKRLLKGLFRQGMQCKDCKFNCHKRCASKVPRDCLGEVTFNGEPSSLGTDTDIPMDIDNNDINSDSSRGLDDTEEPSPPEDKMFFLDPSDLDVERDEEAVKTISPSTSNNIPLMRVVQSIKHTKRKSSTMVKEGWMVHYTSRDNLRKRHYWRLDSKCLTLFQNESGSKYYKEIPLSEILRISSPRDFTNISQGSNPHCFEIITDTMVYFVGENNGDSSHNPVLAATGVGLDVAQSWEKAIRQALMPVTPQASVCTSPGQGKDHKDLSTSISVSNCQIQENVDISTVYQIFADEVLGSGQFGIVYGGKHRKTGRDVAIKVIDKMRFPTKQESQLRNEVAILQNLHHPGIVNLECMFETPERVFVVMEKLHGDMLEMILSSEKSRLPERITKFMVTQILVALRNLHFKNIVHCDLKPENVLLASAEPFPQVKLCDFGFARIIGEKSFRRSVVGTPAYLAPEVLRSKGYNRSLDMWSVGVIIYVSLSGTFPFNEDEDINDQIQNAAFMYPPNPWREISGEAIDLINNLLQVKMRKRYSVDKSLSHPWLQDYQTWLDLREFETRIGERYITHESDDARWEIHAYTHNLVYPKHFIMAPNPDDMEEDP

[8] = target: T4, Tyrosine-protein kinase Tec (Homo sapiens) (UniProt P42680); assay: Selectivity interaction (KinomeScan (DiscoverX)) EUB0001079a TEC; conditions: at 1 µM
T4 sequence (whole entry): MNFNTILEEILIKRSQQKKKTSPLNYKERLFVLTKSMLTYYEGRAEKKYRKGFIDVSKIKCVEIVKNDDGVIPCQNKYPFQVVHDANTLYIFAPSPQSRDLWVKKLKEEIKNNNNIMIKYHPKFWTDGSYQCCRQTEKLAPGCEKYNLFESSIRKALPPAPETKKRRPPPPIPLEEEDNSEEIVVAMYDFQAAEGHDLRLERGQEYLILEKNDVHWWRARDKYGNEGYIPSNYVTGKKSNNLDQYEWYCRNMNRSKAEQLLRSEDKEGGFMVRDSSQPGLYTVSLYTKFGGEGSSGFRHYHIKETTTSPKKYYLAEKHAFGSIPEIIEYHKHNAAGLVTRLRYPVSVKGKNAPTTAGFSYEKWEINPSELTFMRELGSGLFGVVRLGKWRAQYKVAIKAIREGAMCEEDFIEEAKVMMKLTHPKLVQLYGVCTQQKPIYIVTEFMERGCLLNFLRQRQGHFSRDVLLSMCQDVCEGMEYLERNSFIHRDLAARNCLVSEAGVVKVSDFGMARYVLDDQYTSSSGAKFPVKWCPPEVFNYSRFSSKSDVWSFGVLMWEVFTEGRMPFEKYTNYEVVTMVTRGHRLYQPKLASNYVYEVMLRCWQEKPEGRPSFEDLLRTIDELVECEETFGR

[9] = target: Serine/threonine-protein kinase 38 (Homo sapiens) (UniProt Q15208); assay: Selectivity interaction (Kinase panel (KiNativ target engagement assay in Jurkat cells)) EUB0001635a STK38; format: cell-based; conditions: Selectivity number of off-targets 0.0, Selectivity number of targets 233.0, Source Knowledge https://www.sciencedirect.com/science/article/pii/S2451945619300674?via%3Dihub, at 1 µM
[10] = target: Glycogen synthase kinase-3 beta (Homo sapiens, UniProt P49841); assay: Selectivity interaction (KinomeScan (DiscoverX)) EUB0001619a GSK3B; conditions: at 1 µM
Sequence of Glycogen synthase kinase-3 beta (P49841 whole entry, looked up): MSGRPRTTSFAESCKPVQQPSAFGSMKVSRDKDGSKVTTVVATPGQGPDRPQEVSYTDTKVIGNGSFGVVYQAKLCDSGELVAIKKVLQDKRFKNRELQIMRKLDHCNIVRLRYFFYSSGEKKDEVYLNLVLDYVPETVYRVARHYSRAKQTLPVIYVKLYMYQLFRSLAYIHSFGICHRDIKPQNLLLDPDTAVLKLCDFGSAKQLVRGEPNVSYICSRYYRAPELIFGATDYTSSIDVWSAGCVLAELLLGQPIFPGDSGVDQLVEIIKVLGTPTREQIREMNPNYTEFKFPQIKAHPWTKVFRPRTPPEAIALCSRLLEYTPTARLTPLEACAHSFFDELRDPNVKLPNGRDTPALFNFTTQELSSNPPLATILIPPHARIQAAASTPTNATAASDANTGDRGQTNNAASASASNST

Sequence of SRSF protein kinase 3 (Homo sapiens) (Q9UPE1 whole entry): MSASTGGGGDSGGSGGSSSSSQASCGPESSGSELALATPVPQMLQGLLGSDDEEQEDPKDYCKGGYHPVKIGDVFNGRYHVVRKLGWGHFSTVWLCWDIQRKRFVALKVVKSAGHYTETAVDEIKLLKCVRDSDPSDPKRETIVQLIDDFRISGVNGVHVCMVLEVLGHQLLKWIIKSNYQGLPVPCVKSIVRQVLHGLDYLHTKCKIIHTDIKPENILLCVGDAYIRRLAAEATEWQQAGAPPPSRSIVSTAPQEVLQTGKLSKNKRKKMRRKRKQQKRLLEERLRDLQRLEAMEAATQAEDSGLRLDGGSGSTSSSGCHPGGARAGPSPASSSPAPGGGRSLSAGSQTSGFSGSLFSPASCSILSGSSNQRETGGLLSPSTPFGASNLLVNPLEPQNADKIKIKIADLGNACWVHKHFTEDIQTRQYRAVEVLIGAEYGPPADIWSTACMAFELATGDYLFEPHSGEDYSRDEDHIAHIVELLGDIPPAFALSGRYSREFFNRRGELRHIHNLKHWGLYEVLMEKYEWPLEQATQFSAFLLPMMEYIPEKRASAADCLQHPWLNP
Sequence of Receptor tyrosine-protein kinase erbB-2 (P04626 whole entry): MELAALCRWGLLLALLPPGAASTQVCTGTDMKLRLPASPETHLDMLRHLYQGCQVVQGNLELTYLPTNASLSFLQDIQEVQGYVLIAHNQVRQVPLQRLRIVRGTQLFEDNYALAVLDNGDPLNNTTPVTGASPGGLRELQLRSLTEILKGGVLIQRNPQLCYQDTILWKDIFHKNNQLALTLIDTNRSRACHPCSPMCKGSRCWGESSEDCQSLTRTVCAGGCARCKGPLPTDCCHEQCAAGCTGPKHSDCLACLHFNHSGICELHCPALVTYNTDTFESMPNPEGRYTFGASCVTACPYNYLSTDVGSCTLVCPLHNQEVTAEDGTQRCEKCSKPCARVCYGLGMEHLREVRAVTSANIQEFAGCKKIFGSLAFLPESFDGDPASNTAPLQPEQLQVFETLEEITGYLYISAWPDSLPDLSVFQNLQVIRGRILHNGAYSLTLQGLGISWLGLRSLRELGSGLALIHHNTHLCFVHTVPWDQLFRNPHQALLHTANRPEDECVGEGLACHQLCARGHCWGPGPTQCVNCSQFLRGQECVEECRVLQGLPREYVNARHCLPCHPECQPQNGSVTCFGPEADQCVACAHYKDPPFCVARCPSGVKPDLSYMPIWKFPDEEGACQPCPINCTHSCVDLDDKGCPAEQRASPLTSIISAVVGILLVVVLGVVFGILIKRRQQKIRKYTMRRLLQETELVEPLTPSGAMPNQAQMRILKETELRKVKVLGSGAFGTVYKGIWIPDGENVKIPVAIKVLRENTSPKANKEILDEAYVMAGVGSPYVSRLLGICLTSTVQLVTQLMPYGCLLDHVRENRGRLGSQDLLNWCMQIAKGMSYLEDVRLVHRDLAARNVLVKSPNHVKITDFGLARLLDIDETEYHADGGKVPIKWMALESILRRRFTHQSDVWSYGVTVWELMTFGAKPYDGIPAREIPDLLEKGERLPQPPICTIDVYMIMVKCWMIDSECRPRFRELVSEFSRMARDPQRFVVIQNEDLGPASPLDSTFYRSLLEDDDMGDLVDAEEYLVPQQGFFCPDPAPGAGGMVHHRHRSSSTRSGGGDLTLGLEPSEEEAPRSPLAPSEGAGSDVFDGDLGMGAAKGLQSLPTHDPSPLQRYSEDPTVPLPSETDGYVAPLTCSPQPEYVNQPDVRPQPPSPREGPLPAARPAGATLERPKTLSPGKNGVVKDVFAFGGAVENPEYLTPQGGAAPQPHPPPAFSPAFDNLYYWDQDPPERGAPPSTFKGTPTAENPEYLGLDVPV
Sequence of Leucine-rich repeat serine/threonine-protein kinase 2 (Homo sapiens), Q5S007 [G2019S] (Q5S007 whole entry G2019S): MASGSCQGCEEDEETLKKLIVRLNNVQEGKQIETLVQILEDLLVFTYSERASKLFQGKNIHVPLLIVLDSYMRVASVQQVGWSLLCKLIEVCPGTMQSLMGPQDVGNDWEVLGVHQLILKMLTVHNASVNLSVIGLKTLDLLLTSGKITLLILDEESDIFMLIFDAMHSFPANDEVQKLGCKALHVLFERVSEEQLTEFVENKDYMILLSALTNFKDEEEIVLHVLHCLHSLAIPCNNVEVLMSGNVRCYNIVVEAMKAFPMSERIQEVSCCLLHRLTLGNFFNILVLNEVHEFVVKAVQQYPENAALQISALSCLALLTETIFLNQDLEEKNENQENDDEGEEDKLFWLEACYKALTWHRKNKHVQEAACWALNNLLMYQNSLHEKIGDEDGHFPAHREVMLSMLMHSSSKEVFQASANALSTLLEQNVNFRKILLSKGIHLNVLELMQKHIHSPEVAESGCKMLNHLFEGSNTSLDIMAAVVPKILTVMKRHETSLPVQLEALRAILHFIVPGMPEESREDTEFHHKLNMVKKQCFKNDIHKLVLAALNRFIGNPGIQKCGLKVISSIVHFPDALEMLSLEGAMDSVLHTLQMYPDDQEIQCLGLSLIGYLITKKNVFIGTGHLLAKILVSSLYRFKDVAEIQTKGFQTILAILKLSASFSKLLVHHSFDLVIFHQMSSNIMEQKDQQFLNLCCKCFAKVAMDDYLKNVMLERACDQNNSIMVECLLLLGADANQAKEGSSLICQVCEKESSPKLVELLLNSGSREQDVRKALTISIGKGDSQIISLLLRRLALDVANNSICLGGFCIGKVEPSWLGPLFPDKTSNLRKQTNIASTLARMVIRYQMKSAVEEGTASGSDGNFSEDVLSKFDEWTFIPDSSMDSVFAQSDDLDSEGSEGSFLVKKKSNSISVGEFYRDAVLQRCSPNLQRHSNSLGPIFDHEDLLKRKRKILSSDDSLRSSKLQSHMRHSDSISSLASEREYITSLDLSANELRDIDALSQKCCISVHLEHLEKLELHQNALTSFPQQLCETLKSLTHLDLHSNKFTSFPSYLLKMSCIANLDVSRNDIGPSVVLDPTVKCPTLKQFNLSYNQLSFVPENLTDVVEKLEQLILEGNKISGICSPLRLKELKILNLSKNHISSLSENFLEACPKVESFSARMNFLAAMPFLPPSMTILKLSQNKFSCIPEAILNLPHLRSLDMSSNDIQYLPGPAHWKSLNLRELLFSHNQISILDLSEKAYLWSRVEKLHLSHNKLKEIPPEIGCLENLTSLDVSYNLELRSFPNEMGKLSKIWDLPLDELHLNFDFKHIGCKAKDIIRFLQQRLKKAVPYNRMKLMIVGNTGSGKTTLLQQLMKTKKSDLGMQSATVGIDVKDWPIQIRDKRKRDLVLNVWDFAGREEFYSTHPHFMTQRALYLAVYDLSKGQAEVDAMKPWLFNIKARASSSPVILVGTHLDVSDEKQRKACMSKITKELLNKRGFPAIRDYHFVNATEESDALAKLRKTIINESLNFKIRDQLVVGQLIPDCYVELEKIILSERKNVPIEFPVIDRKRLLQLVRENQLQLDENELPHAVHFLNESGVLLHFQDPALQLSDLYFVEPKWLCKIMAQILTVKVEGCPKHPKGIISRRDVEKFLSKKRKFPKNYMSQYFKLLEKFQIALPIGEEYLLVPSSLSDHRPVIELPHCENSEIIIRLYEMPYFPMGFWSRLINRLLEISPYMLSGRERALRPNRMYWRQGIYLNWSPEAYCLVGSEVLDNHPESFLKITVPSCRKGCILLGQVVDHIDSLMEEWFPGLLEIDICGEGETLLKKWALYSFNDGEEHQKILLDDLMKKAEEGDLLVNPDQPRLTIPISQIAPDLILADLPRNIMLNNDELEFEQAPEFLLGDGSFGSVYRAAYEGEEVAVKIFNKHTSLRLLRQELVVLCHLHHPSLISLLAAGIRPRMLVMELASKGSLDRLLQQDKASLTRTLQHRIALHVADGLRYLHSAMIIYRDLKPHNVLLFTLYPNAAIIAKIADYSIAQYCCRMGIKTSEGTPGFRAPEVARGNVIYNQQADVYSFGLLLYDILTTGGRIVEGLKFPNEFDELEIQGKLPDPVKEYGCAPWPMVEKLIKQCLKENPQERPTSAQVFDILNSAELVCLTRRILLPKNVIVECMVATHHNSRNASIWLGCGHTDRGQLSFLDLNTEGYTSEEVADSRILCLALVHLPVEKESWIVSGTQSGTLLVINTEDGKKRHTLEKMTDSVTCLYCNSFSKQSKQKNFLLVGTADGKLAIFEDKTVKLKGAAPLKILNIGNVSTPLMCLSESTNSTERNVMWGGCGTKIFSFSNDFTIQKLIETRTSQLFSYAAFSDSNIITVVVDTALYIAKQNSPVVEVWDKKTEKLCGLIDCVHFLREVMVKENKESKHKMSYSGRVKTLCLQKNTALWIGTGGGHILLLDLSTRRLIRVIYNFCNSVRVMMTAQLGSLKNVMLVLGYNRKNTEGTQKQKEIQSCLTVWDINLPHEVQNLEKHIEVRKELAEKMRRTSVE
Sequence of Leucine-rich repeat serine/threonine-protein kinase 2 (Q5S007 whole entry): as the sequence (Q5S007 whole entry G2019S) above, with S2019G counted along it

% of control [1]: 100%
Structure (SMILES): CCN(CC)CCCCNc1ncc2cc(-c3cc(OC)cc(OC)c3)c(NC(=O)NC(C)(C)C)nc2n1

% of inhibition [2]: 8.65%
Structure (SMILES): CC[C@@H]1[C@H](F)C(=O)N[C@@H]1COc1nccc2cc(C(N)=O)c(OC)cc12 [ZIMLOVISERTIB]

Structure (SMILES): COCC(=O)NC/C=C/c1ccc2ncnc(Nc3ccc(Oc4ccc(C)nc4)c(C)c3)c2c1 [CP-724714]
% of control [3]: 98%
% of control [4]: 100%

Structure (SMILES): COc1cc(Nc2nc(C)cc(-c3cnn4nc(OC)ccc34)n2)cc(C(F)(F)F)c1
% of control [5]: 100%

Structure (SMILES): CN(C)CCOc1ccc(-c2nc(-c3ccncc3)c(-c3ccc4c(c3)CC/C4=N\O)[nH]2)cc1
% of control [6]: 98%
% of control [7]: 40%

Structure (SMILES): Nc1cnc(N2CCc3cc(S(=O)(=O)Nc4c(F)cc(Cl)cc4F)cc(N4CCCC4=O)c32)nc1 [TP-020n]
% of control [8]: 99%

Structure (SMILES): C=CC(=O)Nc1ccc(C(=O)Nc2[nH]nc3c2CN(C(=O)N[C@H](CN(C)C)c2ccccc2)C3(C)C)cc1
% of engagement [9]: -3.5%

Structure (SMILES): N#Cc1cccc(-c2c[nH]c3ncnc(N4CCOCC4)c23)c1
% of control [10]: 94%
